For assay [1], the system named is fluoroquinolone-resistant S. aureus ATCC 700699. Put plainly: Minimum inhibitory concentration (MIC) assay, broth microdilution, MRSA. It is filed as cell-based. The settings on record: Staphylococcus aureus; fluoroquinolone-resistant S. aureus ATCC 700699; Table I; read-out: MRSA MIC. The protocol:
(§1) The antimicrobial activity of the compounds of the invention may be evaluated by a number of methods, including the following visual minimum inhibitory concentration (MIC) assay. This assay determines the minimum concentration of compound required to inhibit growth of a bacterial strain.
(§2) Whole-cell antibacterial activity is determined by broth microdilution using conditions recommended by the NCCLS (see National Committee for Clinical Laboratory Standards. 2001. Performance standards for antimicrobial susceptibility testing: 11th informational supplement. Vol. 21, no. 1, M100-S11. National Committee for Clinical Laboratory Standards, Wayne, Pa.). Test compounds are dissolved in DMSO and diluted 1:50 in Mueller-Hinton II broth (Becton-Dickinson) to produce a 256 μg/ml stock solution. In a 96-well microtiter plate, the compound solution is serially two-fold diluted in Mueller-Hinton II broth. After the compounds are diluted, a 50 μl aliquot of the test organism (˜1×10^6 cfu/mL) is added to each well of the microtiter plate. The final test concentrations ranges from 0.125-128 μg/mL. Inoculated plates are incubated in ambient air at 37° C. for 18 to 24 hours. The organisms selected for testing included laboratory strains S. aureus ATCC 29213 and E. coli ATCC 25922 (strains purchased from American Type Culture Collection, Manassas, Va.) m, S. aureus FQR700699, and Paeruginosa 27853. The minimum inhibitory concentration (MIC) is determined as the lowest concentration of compound that inhibited visible growth of the test organism.

For assay [2], the system named is S. aureus ATCC 29213. Briefly: Minimum inhibitory concentration (MIC) assay, broth microdilution, MSSA. The format is cell-based. Conditions: Staphylococcus aureus, Table I. The protocol: as §1, §2

The structures appear in SMILES notation. In brackets after ≈: the same amount, converted by molar mass.

A word on the MIC: it is the lowest concentration that inhibits growth of the organism. Consider `COc1c(N2CC[C@H](N)C2)c(F)cc2c(=O)c3c(O)c(C#N)sc3n(C3CC3)c12` [Cmp 22, (S)-7-(3-aminopyrrolidin-l-yl)-9-cyclopropyl-6-fluoro-3-hydroxyl-8-methoxy-4-oxo-4,9-dihydrothieno[2,3-b]quinoline-2-carbonitrile], for which the MIC in assay [1] was found to be 0.25 µg/mL (≈ 0.603 µM); in assay [2], 0.03 µg/mL (≈ 0.0724 µM).

Regarding `CO/N=C1\CN(c2c(F)cc3c(=O)c4c(O)c(C#N)sc4n(C4CC4)c3c2OC)CC1CN` (centres unmarked) [Cmp 39, (Z)-7-(3-(aminomethyl)-4-(methoxyimino)pyrrolidin-1-yl)-9-cyclopropyl-6-fluoro-3-hydroxyl-8-methoxy-4-oxo-4,9-dihydrothieno[2,3-b]quinoline-2-carbonitrile], the MIC in assay [1] was found to be 1 µg/mL (≈ 2.12 µM); in assay [2], 0.13 µg/mL (≈ 0.276 µM).

Regarding `CN(C)c1ccc2c(=O)c3c(O)c(C#N)sc3n(C3CC3)c2c1OC(F)F` [Cmp 17, 9-cyclopropyl-8-(difluoromethoxy)-7-(dimethylamino)-3-hydroxyl-4-oxo-4,9-dihydrothieno[2,3-b]quinoline-2-carbonitrile], the MIC in assay [1] amounted to 64 µg/mL (≈ 164 µM); in assay [2], 4 µg/mL (≈ 10.2 µM).

Regarding `COc1c(N2CCC[C@H]2C(N)=O)c(F)cc2c(=O)c3c(n(C4CC4)c12)SC(C#N)C3=O` (stereo partly drawn) [Cmp 46, (2S)-1-(2-cyano-9-cyclopropyl-6-fluoro-8-methoxy-3,4-dioxo-2,3,4,9-tetrahydrothieno[2,3-b]quinolin-7-yl)pyrrolidine-2-carboxamide], the MIC is 64 µg/mL (≈ 145 µM) in assay [1] and 4 µg/mL (≈ 9.04 µM) in assay [2].

On to `COc1c(N2CC[C@@H](C(C)(C)N)C2)c(F)cc2c(=O)c3c(O)c([N+](=O)[O-])sc3n(C3CC3)c12` [Cmp 13, (R)-7-(3-(2-aminopropan-2-yl)pyrrolidin-1-yl)-9-cyclopropyl-6-fluoro-3-hydroxyl-8-methoxy-2-nitrothieno[2,3-b] quinolin-4(9H)-one], for which the MIC was 32 µg/mL (≈ 67.2 µM) in assay [1] and 8 µg/mL (≈ 16.8 µM) in assay [2].

Turning to `N#Cc1sc2c(c1O)c(=O)c1cc(F)c(N3CCNCC3)cc1n2C1CC1` [Cmp 21, 9-cyclopropyl-6-fluoro-3-hydroxyl-4-oxo-7-(piperazin-1-yl)-4,9-dihydrothieno[2,3-b]quinoline-2-carbonitrile], the MIC in assay [1] turned out to be 2 µg/mL (≈ 5.2 µM); in assay [2] it was 0.13 µg/mL (≈ 0.338 µM).

As to `COc1c(N2CCC(c3ncn[nH]3)CC2)c(F)cc2c(=O)c3c(n(C4CC4)c12)SC(C#N)C3=O` (centres unmarked) [Cmp 48, 7-(4-(1H-1,2,4-triazol-5-yl)piperidin-1-yl)-9-cyclopropyl-6-fluoro-8-methoxy-3,4-dioxo-2,3,4,9-tetrahydrothieno [2,3-b]quinoline-2-carbonitrile], the MIC in assay [1] came to 0.25 µg/mL (≈ 0.52 µM); in assay [2], 0.03 µg/mL (≈ 0.0624 µM).

Regarding `COc1c(-c2ccnc(N3CCNCC3)c2)c(F)cc2c(=O)c3c(n(C4CC4)c12)SC(C#N)C3=O` (centres unmarked) [Cmp 50, 9-cyclopropyl-6-fluoro-8-methoxy-3,4-dioxo-7-(2-(piperazin-1-yl)pyridin-4-yl)-2,3,4,9-tetrahydrothieno [2,3-b]quinoline-2-carbonitrile], the MIC amounted to 1 µg/mL (≈ 2.03 µM) in assay [1] and 0.06 µg/mL (≈ 0.122 µM) in assay [2].

For `COc1c(N2CC[C@@H](C(C)(C)N)C2)ccc2c(=O)c3c(O)c(C#N)sc3n(C3CC3)c12` [Cmp 2, (R)-7-(3-(2-aminopropan-2-yl)pyrrolidin-1-yl)-9-cyclopropyl-3-hydroxyl-8-methoxy-4-oxo-4,9-dihydrothieno[2,3-b]quinoline-2-carbonitrile], the minimal inhibitory concentration (MIC) worked out at 0.42 µg/mL (≈ 0.958 µM) in assay [1] and 0.06 µg/mL (≈ 0.137 µM) in assay [2].

Regarding `COc1c(N2CC[C@@H](c3ncn[nH]3)C2)c(F)cc2c(=O)c3c(n(C4CC4)c12)SC(C#N)C3=O` (stereo partly drawn) [Cmp 44, 7-((R)-3-(1H-1,2,4-triazol-5-yl)pyrrolidin-1-yl)-9-cyclopropyl-6-fluoro-8-methoxy-3,4-dioxo-2,3,4,9-tetrahydrothieno [2,3-b]quinoline-2-carbonitrile], the MIC worked out at 0.13 µg/mL (≈ 0.279 µM) in assay [1] and 0.02 µg/mL (≈ 0.0429 µM) in assay [2].

The record behind these values is patent US8173636B2, “Hydroxylthienoquinolones and related compounds as anti-infective agents” (Achillion Pharmaceuticals, Inc., priority 2009, dated 2012).
